Measured values reported in the supplement of paper PMC8671470.

Legend:
Experiment in all cases: cell viability (% survival relative to DMSO control); higher = less cytotoxic
Conditions in all cases: 72 h
[1] = test system: myeloid leukemia patient primary cells Pat.7
Summary of the method: (§1)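 Thawed mononuclear cells from AML or CML patients were purified on Ficoll and cultured for 72 h in RPMI 1640 with 10% FBS, at 10,000 cells/well, on 384-well plates carrying 70 pre-printed compounds at 1–10,000 nM in five tenfold steps, in duplicate. Viability came from CellTiter-Glo, normalised against DMSO and against 10 μM proteasome inhibitor. Any area under the curve given was derived from log-logistic curve fits in the drc and PharmacoGx R packages, and these fits had four parameters.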

[2] = test system: myeloid leukemia patient primary cells Pat.9
Summary of the method: as §1

[3] = test system: myeloid leukemia patient primary cells Pat.5
Summary of the method: as §1

[4] = test system: myeloid leukemia patient primary cells Pat.13
Summary of the method: as §1

[5] = test system: myeloid leukemia patient primary cells Pat.4
Summary of the method: as §1

[6] = test system: myeloid leukemia patient primary cells Pat.3
Summary of the method: as §1

[7] = test system: myeloid leukemia patient primary cells Pat.14
Summary of the method: as §1

[8] = test system: myeloid leukemia patient primary cells Pat.2
Summary of the method: as §1

[9] = test system: myeloid leukemia patient primary cells Pat.1
Summary of the method: as §1

[10] = test system: myeloid leukemia patient primary cells Pat.8
Summary of the method: as §1

HL-60 = test system: HL-60
Experimental: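 8x8 drug-combination matrices (0-5000 nM; rosiglitazone and lestaurtinib 0-1000 nM) were run in HL-60 cells for 72 h with a CellTiter-Glo read-out. Survival is normalised to DMSO and 10 µM bortezomib and clipped at 100%. Bliss synergy was analysed in SynergyFinder.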

COc1cc(/C=C/C(=O)N2CCC=CC2=O)cc(OC)c1OC [Piperlongumine]
cell viability [%]
Conditions	[1]	[2]	[3]	[4]	[5]	[6]	[7]	[8]	[9]	[10]
1 nM	52	9.44	6.78	81.8	82.6	60	60.5	90.5	93.4	79.2
10 nM	> 100	76.7	82.5	98.3	88.8	> 100	98.5	98.5	84.5	89.3
100 nM	69.9	31.8	13.4	76	68.2	84.6	68.7	93.3	70.3	79.2
1000 nM	78.6	39	11.1	69	53.9	51.3	44.8	93.6	75.6	77.1
10000 nM	57	7.88	10.1	21.2	< 0	3.72	6.11	4.56	3.43	0.503

Nc1nc(Cl)nc2c1ncn2[C@H]1C[C@H](O)[C@@H](CO)O1 [Cladribine]
cell viability [%]
Conditions	[1]	[2]	[3]	[4]	[5]	[6]	[7]	[8]	[9]	[10]
1 nM	97.6	84.9	50.7	96.2	99	92.1	90.7	> 100	95.2	88.1
10 nM	82.8	34	35.2	54.6	55.6	69.8	75.3	89.8	98.3	77.7
100 nM	17.1	< 0	9.01	12.5	13.5	7.92	17.3	53.5	> 100	12.6
1000 nM	< 0	1.24	0.265	4.44	4.74	6.26	3.16	15.5	90.3	3.65
10000 nM	< 0	4.28	1.33	4.27	6.11	6.06	0.937	10.1	94.1	3.19

O=C(O)C1=CC(=C(c2ccc(O)c(C(=O)O)c2)c2ccc(O)c(C(=O)O)c2)C=CC1=O [Aurintricarboxylic acid]
cell viability [%]
Conditions	[1]	[2]	[3]	[4]	[5]	[6]	[7]	[8]	[9]	[10]
1 nM	87.2	> 100	> 100	89.1	99.3	> 100	92.5	98	92.9	92.5
10 nM	94.1	99	88.3	91.4	81.2	> 100	> 100	99.7	94.4	87.6
100 nM	> 100	88	91.7	94.1	83.3	99.7	98.6	97.8	96.2	79.7
1000 nM	> 100	> 100	> 100	> 100	> 100	91.7	> 100	> 100	> 100	94.2
10000 nM	70.9	53.2	> 100	93.4	91	> 100	92.1	98.8	> 100	79.4

O=C(O)Cn1nnc(-c2cc(N3CCC(Oc4cc(F)ccc4Br)CC3)no2)n1 [MK-8245]
cell viability [%]
Conditions	[1]	[2]	[3]	[4]	[5]	[6]	[7]	[8]	[9]	[10]
1 nM	97.4	82.3	> 100	87.2	97.3	> 100	95.5	> 100	96.4	> 100
10 nM	93.6	69.4	93.9	88.5	96.4	98.2	90.3	97	77.4	89.4
100 nM	82.9	79.2	90.6	99.8	81	78.1	99.3	> 100	98	94.8
1000 nM	> 100	85.3	94.3	95.8	97.3	62	90.2	> 100	97.5	91.6
10000 nM	56.7	71.9	70	95.5	> 100	57	89.8	96.3	98.5	> 100

Oc1ccc(Nc2nc(-c3ccc(Cl)cc3)cs2)cc1 [SKI II]
cell viability [%]
Conditions	[1]	[2]	[3]	[4]	[5]	[6]	[7]	[8]	[9]	[10]
1 nM	79.7	20.1	34.3	77.6	65.6	56.2	58.3	95.5	64.1	82.4
10 nM	> 100	79.9	41.7	94.2	94.5	92.1	97.8	95.9	> 100	80.7
100 nM	62.7	67.9	45.5	89.3	54.5	89.3	69.4	95.1	> 100	84.5
1000 nM	11.5	24.7	25	92.9	89.1	44.4	29.1	94.2	88.9	80
10000 nM	< 0	4.42	17	32.9	25.3	0.909	6.09	53.1	32.6	42.6

O=C(C1CC1)N1CC[C@@H](C=C2NNC(=O)N2c2ccc(-c3ccc4occc4c3)cc2)C1
cell viability [%]
Conditions	[1]	[2]	[3]	[4]	[5]	[6]	[7]	[8]	[9]	[10]
1 nM	> 100	95.6	73	85.5	79.7	93.5	92.5	> 100	87	85.5
10 nM	97.1	80.9	> 100	96.1	87.2	> 100	91.4	99	89	95.4
100 nM	81.9	87.2	72.3	92.9	90.8	84.2	96.2	> 100	> 100	74
1000 nM	51.6	45.5	35.3	86.5	92.1	78.8	77.3	95.2	96.2	92.2
10000 nM	71.6	33.2	17.1	80.1	71.6	77.1	79.5	91.7	79.7	73.2

O=C(C1CC1)N1CC[C@@H](C=C2NNC(=O)N2c2ccc(-c3ccc4occc4c3)cc2)C1 + CS(=O)(=O)N1CCN(Cc2cc3nc(-c4cccc5[nH]ncc45)nc(N4CCOCC4)c3s2)CC1 [Pictilisib]
cell viability [%], HL-60
Conditions	drug1 concentration 5 nM	drug1 concentration 10 nM	drug1 concentration 50 nM	drug1 concentration 100 nM	drug1 concentration 500 nM	drug1 concentration 1000 nM	drug1 concentration 5000 nM
drug2 concentration 5 nM	93	71.7	66.5	59.9	51.3	56.3	51.5
drug2 concentration 10 nM	70	68.5	58.9	60.9	56.7	55.8	52.9
drug2 concentration 50 nM	59.4	61.7	54.4	53.3	52.8	53.1	51
drug2 concentration 100 nM	60.3	58.5	51.3	51.5	45.6	51.7	52.2
drug2 concentration 500 nM	46.9	49	44.4	45.7	34.5	47.1	45
drug2 concentration 1000 nM	46.7	50.8	41.3	44.2	48.4	49.9	39.1
drug2 concentration 5000 nM	38.6	42.6	40.3	33.2	38.6	43.5	36.2

C=C(C=NNC(=N)N)NNC(=N)N [Mitoguazone]
cell viability [%]
Conditions	[1]	[2]	[3]	[4]	[5]	[6]	[7]	[8]	[9]	[10]
1 nM	65.3	75.2	> 100	88.3	92.5	97.3	91.4	96.2	86.1	94.1
10 nM	85.7	50.8	0.912	78.5	82.3	82.2	54.7	79.2	72.5	69
100 nM	< 0	1.24	0.265	91.2	48.1	51.4	4.62	49.2	93.5	50
1000 nM	< 0	1.6	1.33	50.8	92.3	4.18	2.41	50	94.2	99.8
10000 nM	54.5	57.2	78.9	> 100	44.2	53	80.8	67.7	69	94.2

Cc1c(-c2ccc(-c3ccccc3F)cc2)nc2ccc(F)cc2c1C(=O)O [Brequinar]
cell viability [%]
Conditions	[1]	[2]	[3]	[4]	[5]	[6]	[7]	[8]	[9]	[10]
1 nM	81.2	88.1	66.1	> 100	0.431	> 100	89.4	> 100	93.1	91.5
10 nM	87.1	59.6	60.8	93.4	90.6	58	81.1	92.7	89.3	82
100 nM	62	36.9	47.9	96.6	94.7	30	73.4	97.1	97.5	78
1000 nM	60.6	50	33.1	94.2	87.5	33.1	65.6	95.2	92.2	97.6
10000 nM	55.3	10.6	6.89	84.6	86.4	20.7	32.3	99.9	88.6	88.4

CC(C)c1onc(-c2c(Cl)cccc2Cl)c1COc1ccc(/C=C/c2cccc(C(=O)O)c2)c(Cl)c1 [GW4064] + Cn1cc(-c2ccncc2)c(-c2ccc(OCc3ccc4ccccc4n3)cc2)n1 [PF-02545920]
cell viability [%], HL-60
Conditions	drug1 concentration 5 nM	drug1 concentration 10 nM	drug1 concentration 50 nM	drug1 concentration 100 nM	drug1 concentration 500 nM	drug1 concentration 1000 nM	drug1 concentration 5000 nM
drug2 concentration 5 nM	> 100	98.6	> 100	> 100	> 100	> 100	78.8
drug2 concentration 10 nM	> 100	> 100	> 100	> 100	97	> 100	89.8
drug2 concentration 50 nM	> 100	> 100	> 100	> 100	> 100	68.7	> 100
drug2 concentration 100 nM	81.7	> 100	88.4	76.3	> 100	> 100	53.4
drug2 concentration 500 nM	> 100	65.9	> 100	> 100	> 100	> 100	> 100
drug2 concentration 1000 nM	97.1	> 100	> 100	> 100	> 100	46.6	> 100
drug2 concentration 5000 nM	> 100	> 100	> 100	> 100	> 100	89.8	> 100
